Source: patent publication US10875864B2, “Substituted imidazo[1,2-B]pyridazines as protein kinase inhibitors” (SUMITOMO DAINIPPON PHARMA ONCOLOGY, INC., priority 2011, dated 2020)

What was measured:
[1] = tested on: ML-2 cells (wild-type FLT3); experiment: ML-2 mouse xenograft; assay type: in vivo; conditions: ML-2, wild-type FLT3
Description: (§1) Male and female Nu/Nu mice were purchased from Harlan Sprague Dawley (Indianapolis, Ind.). Female Nu/Nu mice were used for all xenograft evaluations with the exception of the PC-3 xenografts where male Nu/Nu mice were used. Cell lines were expanded in vitro in complete media, and if adherent were harvested by trypsin-EDTA, centrifuged and resuspended in PBS 1:1 with Matrigel (BD Bioscienes). Cells were inoculated subcutaneously in the right hind flank of mice. When tumors reached 100-200 mm^3 by caliper measurement, mice were randomized and dosing of SGI-9481 or vehicle control began and continued every day for 5 days (QD×5) with 2 days off for 18-21 days. Tumor volumes and body weights were determined twice a week, and tumor weights were measured at the completion of the translational xenograft studies.

MV-4-11 (FLT3-ITD) = experiment: MV-4-11 mouse xenograft; assay type: in vivo
Description: as §1

[2] = tested on: phosphatidyl inositol-3-kinase (PI3K) family; experiment: Selectivity study, PI3K family; assay type: biochemical; conditions: multiple members
PC-3 cells = experiment: Colony formation assay, PC-3; assay type: cell-based
Description: (§2) For shRNA growth experiments, 500 UM-UC-3 cells were seeded in a 12-well plate 48 hours post-transduction and cultured for 8-10 days at 37° C. in 5% CO2. Cells were fixed with 4% paraformaldehyde in PBS, washed twice with PBS, and stained with a crystal violet solution (1% crystal violet, 10% ethanol in water). Stained cells were washed thrice with water, and imaged after drying on a GelCount colony counter (Oxford Optronix Ltd., Oxford, UK). Total staining intensity per well was determined by lysis of cells with 200 μl of Triton X-100 lysis buffer (1% Triton X-100, 50 mM Tris-HCl pH 7.4, 150 mM NaCl, 1 mM EDTA). Lysates (100 μl) from each well were transferred to a clear 96-well plate and absorbance at 560 nm was determined on an Envision microplate reader. IC50 values were determined using GraphPad Prism software. For compound treated PC-3 and UM-UC-3, cells were seeded and stained as above, but were incubated with various concentrations of test compound or DMSO one day after seeding.
(§3) Translational models were also explored for PIM dependency using shRNA knockdown. The UM-UC-3 urinary epithelial bladder carcinoma cell line was used to verify and validate dependency on PIM-1 for growth. […] Reduction of PIM-1 mRNA and growth also were observed using both PIM-1 and PIM-2 shRNA in the androgen-independent prostate carcinoma cell line PC-3 (data not shown).

22RV1/PIM-1 xenografts = experiment: 22RV1/PIM-1 over-expression tumor xenograft; assay type: in vivo, mouse
Description: as §1
(§4) The prostate cancer cell line 22RV1 engineered to over-express PIM-1 as previously described (Mumenthaler, et al, Mol. Cancer Ther., 2009, 8(10)2882-93) was evaluated in vivo. A second model engineered to over-express PIM-2 was established using the NIH-3T3 mouse fibroblast cell line.

PC-3 xenograft tumors = experiment: PC-3 established mouse xenograft; assay type: in vivo
Description: as §1, with “When tumors reached 100-200 mm^3 by caliper measurement, mice were randomized and dosing of SGI-9481 or vehicle control began and continued every day for 5 days (QD×5) with 2 days off for 18-21 days.” left out

UM-UC-3 cells = experiment: Colony formation assay, UM-UC-3; assay type: cell-based
Description: as §2, §3

UM-UC-3 xenograft tumors = experiment: UM-UC-3 established mouse xenograft; assay type: in vivo
Description: as §1, with “When tumors reached 100-200 mm^3 by caliper measurement, mice were randomized and dosing of SGI-9481 or vehicle control began and continued every day for 5 days (QD×5) with 2 days off for 18-21 days.” left out

NIH-3T3/PIM-2 xenografts = experiment: NIH-3T3/PIM-2 over-expression tumor xenograft; assay type: in vivo, mouse
Description: as §1, §4

With `CC(C)(O)[C@H]1CC[C@H](Nc2ccc3ncc(-c4cccc(C(F)(F)F)c4)n3n2)CC1` [Compound 8-31] the tumor growth inhibition [1] was “significant tumor growth inhibition”, the “effect on established xenografts” value (MV-4-11 (FLT3-ITD)) was “induced regressions” and the “activity against PI3K family members” value [2] was “inhibitory activity”. The colony growth (PC-3 cells) was “reduced colony growth”, the subcutaneous tumor growth (22RV1/PIM-1 xenografts; 22RV1/PIM-1 + compound vs vehicle) was “significantly reduced” and the body weight change (22RV1/PIM-1 xenografts; 22RV1 xenograft mice) was “No significant changes in body weight”. For the same compound, the tumor growth inhibition (PC-3 xenograft tumors; 125 mg/kg) was “significant tumor growth inhibition”, the “body weight and gross toxicity” value (PC-3 xenograft tumors; oral 200 mg/kg) was “no significant changes in body weight or gross adverse toxicity” and the “tumor growth by volume and final tumor weight” value (PC-3 xenograft tumors; oral 200 mg/kg) was “significantly reduced”. The colony growth (UM-UC-3 cells) was “reduced colony growth”, the tumor growth inhibition (UM-UC-3 xenograft tumors; 125 mg/kg) was “significant tumor growth inhibition” and the “body weight and gross toxicity” value (UM-UC-3 xenograft tumors; oral 200 mg/kg) was “no significant changes in body weight or gross adverse toxicity”. The “tumor growth by volume and final tumor weight” value (UM-UC-3 xenograft tumors; oral 200 mg/kg) was “significantly reduced”, the subcutaneous tumor growth (NIH-3T3/PIM-2 xenografts; NIH-3T3/PIM-2 + compound vs vehicle) was “significantly inhibited” and the body weight change (NIH-3T3/PIM-2 xenografts; NIH-3T3 xenograft mice) was “No significant changes in body weight”.
